Data as given in patent US4786755A, “Diphenic acid monoamides” (Warner-Lambert Company, priority 1986, dated 1988).
pIC50: −log10 of the molar value. Read-outs that look alike come from different tables or passages of the source.

Key:
[1] = tested on: Human Basophils; assay: Histamine Release from Human Basophils (HHB); format: cell-based; settings: Homo sapiens, 33 μM cpd.
From the text: Histamine Release from Human Basophils (HHB) Procedure for Quantitating Active Histamine Release, and its Inhibition by Drugs, from Basophils of Human Blood Using an Automated Fluorometric Histamine Assay
Mediator (histamine) release from human blood basophils is an assay which provides a model for evaluating potential antiallergy (mediator release inhibitors) compounds.
Blood from allergic donors is obtained from volunteers through the Community Research Clinic. The leukocytes are removed after Hespan® sedimentation, washed and concentrated using calcium and magnesium free Hepes buffered saline and resuspended in Hepes Hepes buffered saline with 1 mM calcium and magnesium added back. The cells are incubated briefly at room temperature with either buffer alone (for measuring spontaneous release and challenge agent stimulated release) 6% perchloric acid (for measuring total available histamine in the cells) or drug at various concentrations. The cells are then either treated with buffer alone (to measure control spontaneous and drug effect on spontaneous release) or appropriate challenge agent (e.g., anti-IgE, antigen) mixed and incubated for 45 minutes at 37° C. in a shaking water bath. The reaction is stopped by centrifugation and the supernate is poured into autoanalyzer sample cups and samples assayed for assayed for histamine content using an automated fluorometric assay. By comparing the histamine release of drug-treated cells and the challenge agent controls, drug inhibition of mediator (histamine) release can be evaluated.
Histamine release is induced by (1) an aqueous antigen extract (short rageweed or house dust), or (2) anti-IgE antisera. Whole human blood is obtained from volunteers through the Community Research Clinic (CRC-92). Volunteers are chosen on the basis of adequate histamine release induced by antigen, or antiIgE antisera challenge. Leukocytes are incubated in vitro with the challenge agents at several concentrations. Dose-response curves for each volunteer, using each challenge agent, are generated. Test compounds are evaluated for inhibition of a near maximal response to one or more challenge agents. By including appropriate controls, it is possble to measure the effect of the test compound, at various concentrations, in several ways: (1) the effect of the compound on histamine release for each challenge agent; (2) the effect of the test compound on spontaneous release of histamine in the absence of the challenge agent (buffer alone); and (3) the effect of the test compound on the histamine assay.
Histamine is assayed using an automated continuous flow system which quantitates samples of 0.4 ml or more in volume, and concentrations of approximately 0.5 ng/ml or more. The rate of analysis is 30 samples/hour.
Methods of preparing leukocytes for this assay are described by Theuson, et al, J. of Immunology, Vol. 123, p. 426 (1979).
Samples are run in triplicate, using either 1.5 ml polypropylene capped reaction tubes, or 5.0 ml plastic uncapped tubes. Test compounds and challenge agents are prepared in HACM buffer, as described above. Fixed volume pipettes are used.
Test compound or vehicle control is added to three reaction tubes at 1.5×the final desired concentration (i.e., 400 μl of test compound per 600 μl total reaction volume). One hundred μl of cells is added to each tube and the mixture is incubated for eight minutes at room temperature, and two minutes at 37° C. before antigen or other stimulus challenge. One hundred μl of the challenge agent at 6× the final concentration is then added, and the final mixture is incubated at 37° C. for 45 minutes in a shaking water bath. This ensures that the cell preparation is constantly in suspension. The reaction is stopped by centrifugation at 2000 RPM for three minutes at 4° C. The supernate (.perspectiveto.500 μl) is poured into 2.0 ml autoanalyzer beakers and assayed for histamine by the fluorometric method. […]

[2] = target: T1, leukotriene receptor (Cavia porcellus, UniProt Q2NNR5); assay: Binding of ^3 H-Leukotriene D4 to Guinea Pig Lung Membranes (RBL); settings: ^3 H-LTD4, guinea pig lung membranes; read-out: IC50 RBL1
T1 construct: 20 mg original tissue wet weight of guinea pig lung membranes; tissue Kuiper Rabbit Farm, Gary, IN (animals); host or cells: guinea pig lung, crude membranes
T1 sequence (Q2NNR5 1-340): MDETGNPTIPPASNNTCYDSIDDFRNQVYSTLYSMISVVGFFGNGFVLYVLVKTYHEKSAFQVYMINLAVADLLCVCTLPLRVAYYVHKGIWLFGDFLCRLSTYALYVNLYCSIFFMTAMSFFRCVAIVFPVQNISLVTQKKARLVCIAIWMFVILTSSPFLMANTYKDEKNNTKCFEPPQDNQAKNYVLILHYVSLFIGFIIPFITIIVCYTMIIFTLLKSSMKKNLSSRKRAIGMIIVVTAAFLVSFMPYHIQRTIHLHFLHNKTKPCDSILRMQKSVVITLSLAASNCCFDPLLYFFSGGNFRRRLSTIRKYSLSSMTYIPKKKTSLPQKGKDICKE
Description: Additionally, the activity, of the compounds having the Formula I of the present invention is determined by the well known leukotriene receptor binding assay that is described by R. F. Bruns, W. J. Thomsen and T. A. Pugsley in Life Sciences, 33, 645 (1983) or the Herxheimer in vivo antiallergy test described in H. Herxheimer, J. Physiol. (London), Vol. 177, p. 251 (1952).
Binding of ^3 H-Leukotriene D4 to Guinea Pig Lung Membranes (RBL)
[14,15-^3 H]leukotriene D4 (^3 H-LTD4) (25 Ci/mmol and 40 Ci/mmol) is purchased from New England Nuclear. Unlabeled LTC4 is a gift of Ono Pharmaceuticals (Japan). LTC4, LTD4, and LTE4 are purchased as methyl esters from Paesel GmbH (Frankfurt, W. Germany). Concentrations of the Paesel leukotrienes are calculated from their absorbance at 280 nm. Leukotriene esters are saponified overnight under N2 in 3.3% potassium carbonate at room temperature. Tritiated leukotrienes are stored as received from New England Nuclear at -20° C. Ono LTC4 (5 μg/ml is stored at -60° C. in phosphate buffer pH 6.8. Saponified Paesel leukotrienes are stored at -60° C. in 3.3% potassium carbonate (pH 9.0-9.5). Aliquots of leukotrienes are taken from stock solutions immediately after thawing, after which the stock solutions are immediately refrozen. 2-Amino-2-(hydroxymethyl)-1,3-propanediol (Tris) is Sigma pH 7.7 pre-set crystals, and dimethylsulfoxide is Aldrich Gold Label.
Preparation of crude lung membranes
Two pairs of lungs (1.3 g) from freshly sacrificed 300 g male guinea pigs (older animals gave substantially lower binding) from Kuiper Rabbit Farm, Gary, IN are disrupted with a Polytron PT 10 (setting 4) for 30 seconds in 20 ml ice-cold 50 mM Tris adjusted with HCl to pH 7.7 at 25° C. (Tris buffer), filtered through a single layer of gauze to remove connective tissue, and centrifuged at 50,000 xg for ten min. The pellet is resuspended by homogenization with a Polytron in 20 ml Tris buffer, centrifuged at 50,000 xg for ten min., resuspended, incubated at 37° C. for 30 minutes, and centrifuged again. The final pellet is resuspended in Tris buffer and either used fresh or stored at -70° C.
All incubations are in triplicate for 60 minutes at 25° C. in 12×75 mm polystyrene tubes containing 1 ml Tris buffer with 20 mg original tissue wet weight of guinea pig lung membranes, 0.2 nM ^3 H-LTD4 (6,000-11,000 cpm), 10 mM MgCl2, and 1% dimethylsulfoxide. Leukotrienes are diluted in Tris buffer. All other test compounds are dissolved at 10 mM in dimethylsulfoxide on the same day as the experiment, and diluted in dimethylsulfoxide to 100× the final incubation concentration. Control incubations receive an equal volume (10 μl) of dimethylsulfoxide; the resulting concentration of dimethylsulfoxide had no effect on binding. ^3 H-LTD4 is diluted to 2 nM in Tris buffer. The membrane suspension (20 mg/0.89 ml) contains sufficient MgCl2 to give 10 mM final concentration in the incubation. […] All additions are performed at 0° C. Immediately after the last addition, the incubation is initiated by agitating the rack of tubes on a vortex mixer and warming to 25° C. in a water bath. Tubes are vortexed at least once more during the incubation to ensure that the membranes remained suspended. Incubations are terminated after 60 minutes by filtering under reduced pressure through 25 mm Whatman GF/B filters followed by rapid washing three times with 4 ml of ice-cold Tris buffer. Filters are added to scintillation vials with 8 ml Formula 947 (New England Nuclear), left overnight, shaken, and the radioactivity counted in a scintillation counter (efficiency 40%). Nonspecific binding, defined as binding of ^3 H-LTD4 in the presence of 100 nM LTC4, is 300-500 cpm for all lots of ^3 H-LTD4. Binding to the filters in the absence of tissue is about 100 cpm, and is not affected by unlabeled LTC4. Specific binding, defined as total binding minus nonspecific binding, varied considerably from lot to lot of ^3 H-LTD4. […]

[3] = tested on: Isolated Guinea Pig Lung Parenchyma; assay: Smooth Muscle Receptor Agonism-Antagonism Activity Evaluations In Vitro (IVAS), LTC4-induced contraction; format: cell-based
From the text: Smooth Muscle Receptor Agonism-Antagonism Activity Evaluations In Vitro (IVAS) Isolated Guinea Pig Lung Parenchyma
The potency of a test compound for receptor stimulation or antagonism, for example, can easily be determined since the concentration of the compound to which the muscle cell, or specialized responsive area on this cell, is exposed can be easily controlled and correlated with the recorded activity of muscle contraction or relaxation.
The procedures described herein are specifically concerned with the definition of a test drug action on isolated lung strips. Drug action is characterized either by an action per se on the tissues or by interaction with known smooth muscle receptor stimulants or antagonists.
Usually, the tests will be used to evaluate the ability of a test compound to antagonize the contraction induced by standard agonists in this case LTC4. A relative potency is derived by comparison with one of the standard blocking drugs. In caution, relative potencies of test compounds to known standards are valid only if full dose response curves are generated and the compound compared generate parallel dose/response curves with common maxima. Appropriate "within-trial" comparisons are also necessary.
Molecular antagonists compete with the agonist for the receptor. […] A physiological antagonist produces a response by action on a different receptor that causes an effect in opposition to the agonism.
A permanent isolated bath system is used which facilitates the vertical suspension of a segment of tissue in a small volume of a specific nutritive buffer. Frittered glass terminals provide dispersed bubbles of 95% oxygen and 5% carbon dioxide at the base of the individual tissue baths and the buffer reservoir. All baths and the reservoir are double-jacketed and water at 37° C. is circulated through the jacket of the baths to provide stable temperature regulation. The baths are arranged so that fresh solution from the reservoir passes through a jacketed glass coil to the base of the bath. The bubbling gas stirs the bath solution. During equilibration, fresh solution enters and excess solution is allowed to overflow. Unless a particular drug is required throughout the experiment and it is incorporated in the buffer, individual drugs are introduced directly into the bath by long hypodermic needles to the base of the bath without disturbing the tissue. Drugs are removed by rapidly draining the tissue bath from the bottom and refilling. Tissues are washed a minimum of six times. The emptying and refilling sequence takes only five seconds.
The contraction and relaxation of the smooth muscle preparation can be recorded either isotonically (change in length) or isometrically (change in tension). Isometric transducers are more sensitive and proportional. Isometric contractions are recorded electronically using Grass FT 0.03C force displacement transducers and Beckman Dynagraph recorders. The tissue is suspended vertically with one end of the segment anchored to the bottom of the bath and the other end attached to the mechanical electrical transducer muscle level. The electrical output of this transducer moves a pen on a moving chart in proportion to the force displacement.
Lung tissue is obtained from normal male guinea pigs. The heart and lungs are removed as a unit, placed in buffer, and the lungs are perfused with buffer by the spontaneously beating heart for several minutes.

[4] = Tripeptide challenge, read-out: HHB (Tripeptide), percent inhibition of histamine release
[5] = antigen challenge, read-out: HHB (antigen), percent inhibition of histamine release

| SMILES | pIC50 [2] | inhibition at 33 µM [1, 4] [%] | contraction, of maximum ([3]; 3×10^-5 M, isolated guinea pig lung strip) | minimal effective concentration ([3]; Cavia porcellus, isolated guinea pig lung strip, read-out: threshold dose (contraction of lung strip)) [µM] | inhibition at 33 µM [1, 5] [%] | response (r1), of maximum ([3]; 1 ng/ml LTC4, isolated lung strip) |
| --- | --- | --- | --- | --- | --- | --- |
| NCCc1c[nH]cn1 [histamine] | – | – | approximately 75% | ~3 | – | – |
| O=C(O)c1ccccc1-c1ccccc1C(=O)Nc1ccccc1CCc1ccc(Cl)c(Cl)c1 [Example 12, [1,1'-Biphenyl]-2-carboxylic acid, 2'-[[[2-[2-(3,4-dichlorophenyl)ethyl]phenyl]amino]carbonyl]-] | 4.86 | 99 | – | – | -42 | – |
| Cc1ccc(CCc2ccc(NC(=O)c3ccccc3-c3ccccc3C(=O)O)cc2)cc1 [Example 18, [1,1'-Biphenyl]-2-carboxylic acid, 2'-[[[4-[2-(4-methylphenyl)ethyl]phenyl]amino]carbonyl]-] | 4.78 | 98 | – | – | 60 | – |
| CCCCC/C=C\C\C=C/C=C/C=C/[C@@H](SC[C@H](NC(=O)CC[C@H](N)C(=O)O)C(=O)NCC(=O)O)[C@@H](O)CCCC(=O)O [LTC4, leukotriene C4] | – | – | – | – | – | 15-20% |

Continued, in another order:

| pIC50 [2] | SMILES | inhibition at 33 µM [1, 4] [%] | contraction, of maximum ([3]; 3×10^-5 M, isolated guinea pig lung strip) | minimal effective concentration ([3]; Cavia porcellus, isolated guinea pig lung strip, read-out: threshold dose (contraction of lung strip)) [µM] | inhibition at 33 µM [1, 5] [%] | response (r1), of maximum ([3]; 1 ng/ml LTC4, isolated lung strip) |
| --- | --- | --- | --- | --- | --- | --- |
| 4.98 | O=C(O)c1ccccc1-c1ccccc1C(=O)Nc1cccc(Cc2ccc(Cl)c(Cl)c2)c1 [Example 17, [1,1'-Biphenyl]-2-carboxylic acid, 2'-[[[3-[(3,4-dichlorophenyl)methyl]phenyl]amino]carbonyl]-] | 97 | – | – | – | – |
| 5.01 | O=C(O)c1ccccc1-c1ccccc1C(=O)Nc1ccc(CCc2ccc(C(F)(F)F)cc2)cc1 [Example 10] | 74 | – | – | 62 | – |
| 5.43 | CC(C)(C)c1cc(CCc2ccc(NC(=O)c3ccccc3-c3ccccc3C(=O)O)cc2)cc(C(C)(C)C)c1O [Example 14, [1,1'-Biphenyl]-2-carboxylic acid, 2'-[[[4-[2-[3,5-bis(1,1-dimethylethyl)-4-hydroxyphenyl]ethyl]phenyl]amino]carbonyl]-] | 96 | – | – | 41 | – |
